Laboratory results: US5135849A, “In-vitro methods for identifying compositions which are agonists and antagonists of androgens” (priority 1989, dated 1992)

Assays:
LNCaP cells [1] = test: Phase 1 protocol to identify androgen agonist properties (LNCaP cell proliferation in CDHS medium); assay type: cell-based, human; conditions: for PHASE 1 CELL COUNT: final cell number per well at the optimal test conc., 10% CDHS; for CHARACTERISTICS: classification from Phase 1 and Phase 2 protocols
Excerpt: This protocol measures the potential agonistic properties of the substance under test. All manipulations are to be carried out under sterile conditions using disposable plastic tissue culture multiwell plates with all manipulations preferrably being performed in a tissue culture hood.
1. The cell line of choice is the LNCaP-FGC cell culture, an androgen-sensitive prostate tumor cell line. The LNaP cell line is routinely grown in 5% fetal bovine serum--supplemented Dulbecco's modified Eagle minimal essential medium (hereinafter "5% FBS/DME"), at 37° C. in a 95% air--5% CO2 atmosphere.
2. The cultured cells growing in 5% FBS/DME are harvested by treatment with trypsin (1:250)--EDTA (0.2%). The cells are detached by brief exposure to trypsin for about two minutes. To avoid excessive proteolysis, the reaction is quenched by addition of equal volumes of 5% FBS/DME. The resulting cell suspension is collected into a sterile centrifuge tube and resuspended by pipetting gently. The aliquots of this cell suspension thus obtained are dispersed by means of a Skatron dispenser into individual wells containing the seedling medium (1 ml of 5% FBS/DME per well) of a multiwell plate. Each final prepared suspension preferably contains 50,000 cells in a volume of 1.0 ml. It is desirable that the number of cells be counted and verified by means of a Coulter Counter (Coulter Electronics, Hialeah, FL).
The number of wells in each plate will correspond to the number of concentrations per test substances to be evaluated and thus is merely a question of choice or convenience to the user. Into each well, 25 microliter (hereinafter "ul") aliquots of the prepared cell suspension are added using a 1.0 ml syringe fitted with a 19 gauge needle attached to a repetitive Dunn pipetter (Skatron Dispenser). The microtiter plate is then gently shaken to avoid unequal cell distribution within each individual well. The seeded cells are then allowed to attach to the plastic surface of the well proper over a period of 24-72 hours' duration after which the fluid is changed to the experimental maintaining medium.
3 At the time of test, all the seeded cells in each well of the multiwell plate receive 10% heat inactivated--charcoal-dextran human stripped serum (CDHS) in DME at a volume of 0.9 ml per well. Although higher concentrations of CDHS may be utilized up to and including 40% concentrations, the 10% concentration is most preferred.
5. To the other prepared (seeded) wells, 100 ul of the test substance to be evaluated is added as a 10X stock solution to achieve final concentrations ranging from 10^-5 M to at least 10^-12 M. The substance under test is preferably prepared as a stock solution in ethanol, most preferrably as a 10^-3 M solution. All dilutions from the stock preparation are made using DME. The ethanol concentration in the culture medium should be kept below […] by volume. This preparative technique and precaution avoids the need to filter the various volumes of test substance to achieve sterility. This is particularly valuable because steroidal compositions are known to become adsorbed to the commercially obtained filter membranes used for sterilization. The addition of the test substance in appropriate concentrations to the cultured cells and the maintaining medium forms a series of individual reaction mixtures, each of which is varied only by the concentration of the test substance present in the well.
6. After the series of individual reaction mixtures are formed, all of the cultured cells under test in each well of the microtiter plate are incubated at 37° C. preferably in an atmosphere of 5% CO2 /95% air under saturating humidity. During this incubation time, it is desired and preferred that the cultured cells employed in the test be maintained in an atmosphere most advantageous for survival and growth of that cell line. The incubation period preferably is in the range of from 5 to 7 days' duration.

androgen receptor = biological target: T1, androgen receptor (Homo sapiens, UniProt P10275, T878A); test: Competition for androgen receptors with 3H-testosterone in LNCaP cytosol-nuclear extracts (RBA); assay type: binding; conditions: Table II, 5α-DHT = 100; 6×10^-9 M 3H-testosterone
T1 construct: the presence of specific androgen receptors in LNCaP cells; endogenous in cells; extract or intact cells for the saturation analysis
Protocol: (§1) Steroid receptors measurement: The presence of intracellular sex steroid binding proteins was investigated in whole cell extracts as well as in intact cells. Cytosolic and nuclear extracts were obtained after centrifugation (105,000 g, 45 min.) of a sonicated cellular suspension in TKE buffer (10 mM Tris, 500 mM KCl, 0.5 mM EDTA, pH 7.4). Aliquots of this extract were incubated for 18 hours at 4° C. with increasing concentrations (2×10^- M to 2×10^-8 M) of labelled steroids, with and without a 200-fold excess of the corresponding unlabelled steroid. Bound and free fractions were separated by dextran-coated charcoal adsorption. Intact cells grown in monolayer culture were assayed for specific steroid binding [Olea-Serrano et al., Eur. J. Cancer Clin. Oncol. 21:965-973 (1983)]. Briefly, the cells were incubated in 12-well plates during 50 minutes at 37° C. in DME containing the labelled steroid with and without excess of cold competitor. The range of concentrations used was the same as that in the cytosolic-nuclear extract assay. […] The intracellular radioactivity was extracted with ethanol after ice-cold PBS washing. In both types of experiments, Scatchard analysis of the saturation data was used to quantify the maximal binding capacity (Bmax) and the affinity parameters (dissociation constant, Kd) using the SCAFIT program [Munson et al., Anal. Biochem. 107:220-239 (1980)].
Cytosol-nuclear extracts were used to study competition for androgen receptors. […] The relative binding affinity (RBA) was calculated from the equation: […]

[2] = test system: 3H-E2 binding in LNCaP cells; test: Competition with 3H-E2 binding in LNCaP cells; set-up: species or system human
Protocol: as §1

LNCaP cells [3] = test: Proliferation rate (doubling time) of LNCaP cells in 10% CDHS; assay type: cell-based, human; conditions: compared with 5α-DHT
Protocol: 8. To obtain reproducible, accurate, and reliable data consistently using this protocol, a series of quality assurance measures should be employed. […] These goals are achieved using the optimal 5-7 day incubation period. […] For this innoculum, cells are harvested every 24-48 hours (preferably as triplicate samples) until the entire 5-7 day incubation period expires. A good estimate of the proliferation rate is the mean generation time, "tD ". tD is calculated from the equation α=1/txln Ct /Co , where Co is the initial cell number, Ct is the cell number at time-t, and α is the instantaneous cell proliferation constant (tD is the value ln Ct /Co x would have when Ct =2Co) "tD " is expressed in time units, i.e., hr. The slopes of the different growth curves are calculated by fitting the experimental data to a straight line by regression analysis of the pairs ln cell numbers/time. to is defined as the moment at which the seeding medium is replaced by the maintaining medium.
The inhibitory effect of CD human sera was not instantaneous; at the end of 3 to 4 days the population increase was halted and remained stable for up to 30 days without media changes.

LNCaP cells [4] = test: Phase 2 protocol for androgen antagonistic properties (LNCaP proliferation with 3×10^-10 M 5α-DHT plus test substance); conditions: Phase 2 protocol

T1 sequence (P10275 whole entry T878A): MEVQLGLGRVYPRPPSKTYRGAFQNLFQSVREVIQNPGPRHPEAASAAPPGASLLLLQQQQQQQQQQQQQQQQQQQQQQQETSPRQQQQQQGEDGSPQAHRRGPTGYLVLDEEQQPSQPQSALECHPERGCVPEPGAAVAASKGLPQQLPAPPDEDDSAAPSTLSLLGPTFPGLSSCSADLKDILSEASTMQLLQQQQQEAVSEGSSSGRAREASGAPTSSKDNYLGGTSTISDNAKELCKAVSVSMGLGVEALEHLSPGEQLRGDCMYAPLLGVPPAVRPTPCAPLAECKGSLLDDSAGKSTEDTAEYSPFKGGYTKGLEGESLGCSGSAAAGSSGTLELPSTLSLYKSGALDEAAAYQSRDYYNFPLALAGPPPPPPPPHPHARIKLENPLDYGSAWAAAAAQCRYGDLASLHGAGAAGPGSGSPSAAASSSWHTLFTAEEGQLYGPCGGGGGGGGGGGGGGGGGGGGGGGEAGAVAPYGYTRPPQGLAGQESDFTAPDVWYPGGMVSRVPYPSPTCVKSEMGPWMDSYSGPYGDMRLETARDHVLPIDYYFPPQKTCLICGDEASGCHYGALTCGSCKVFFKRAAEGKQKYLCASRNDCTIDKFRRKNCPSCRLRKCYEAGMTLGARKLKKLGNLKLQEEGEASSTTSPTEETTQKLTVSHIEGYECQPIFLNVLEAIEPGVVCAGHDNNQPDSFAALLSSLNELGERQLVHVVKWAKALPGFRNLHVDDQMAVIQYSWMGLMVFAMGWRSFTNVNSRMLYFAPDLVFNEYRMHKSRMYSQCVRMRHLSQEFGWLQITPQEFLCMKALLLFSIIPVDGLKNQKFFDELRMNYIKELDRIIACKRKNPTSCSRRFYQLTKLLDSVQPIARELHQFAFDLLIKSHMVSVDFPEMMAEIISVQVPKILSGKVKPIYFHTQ

C#C[C@]1(O)CC[C@H]2[C@@H]3CCc4cc(O)ccc4[C@H]3[C@@H](OC)C[C@@]21C [R2858, 11β-methoxy-19-nor-17a-1,3,5(10)-trien-20-yne-3,17-diol]
PHASE 1 CELL COUNT (LNCaP cells [1]): 5 × 10^4 | RBA (relative binding affinity to the androgen receptor) (androgen receptor): < 0.01 | competition with 3H-E2 binding, in words [2]: did not compete

C[C@]12CC[C@@H]3c4ccc(O)cc4CC[C@H]3[C@@H]1CC[C@@H]2O [estradiol 17β, estra-1,3,5(10)-triene-3,17-diol]
CHARACTERISTICS (LNCaP cells [1]): full agonist | CHARACTERISTICS (LNCaP cells [1]; listed as estradiol-17β): full agonists | PHASE 1 CELL COUNT (LNCaP cells [1]): 4.0 × 10^5 | population doubling time, in words (LNCaP cells [3]): slightly shorter population doubling time | antagonistic activity, in words (LNCaP cells [4]): no antagonistic activity
